Entries after “also recorded” stand apart in the source; their conditions may differ. Like-named read-outs stand apart in the source and are kept apart here.
Legend:
HCT116 = assay: GI50 by MTS assay; assay type: cell-based; conditions: MTS assay, HCT116, 48 hours
Protocol: For MTS assay, the compounds have been tested at 8 concentrations on 4 colon cancer cell lines for 48 hours. The compounds, concentrations and colon cancer cell line panel tested are the following: • CBG: 0 μM, 1.25 μM, 2.5 μM, 5 μM, 10 μM, 20 μM, 40 μM, and 80 μM. • Compound 1: 0 μM, 1.25 μM, 2.5 μM, 5 μM, 10 μM, 20 μM, 40 μM, and 80 μM. • Compound 2: 0 μM, 1.25 μM, 2.5 μM, 5 μM, 10 μM, 20 μM, 40 μM, and 80 μM. • Colon cancer cell line panel: SW620, HCT15, HT29, HCTl16
Four colon cancer cell lines of SW620, HCT15, HT29, and HCT116 were included in the colon cancer cell line panel.
CBG, compound 1 and compound 2 were dissolved in DMSO at a concentration of 10 mM and stored at −20° C.
Evaluation of DM compounds treatment-induced growth inhibition was performed to determine the GI50 of four colon cancer cell lines with MTS assay or clonogenic assay. Each experiment was repeated in triplicate. In GraphPad Prism, data were log-transformed and fit with a nonlinear curve to calculate the GI50.
MTS assay. cells were plated at 96 well plates at a density of 1,000 cells per well. After 24 hours, cells were treated with DM compounds at increasing concentrations or DMSO vehicle and incubated for 48 hours. 20 μl of MTS reagent (Promega) was then added and incubated for 2 hours. The absorbance was measured with a microplate reader at 490 nm. Each experiment was repeated in triplicate. In GraphPad Prism, data were log-transformed and fit with a nonlinear curve to calculate the GI50.

UGT1A4 = biological target: T1, UGT1A4 (Homo sapiens, UniProt P22310); assay: UGT reaction phenotyping, recombinant Supersomes; assay type: in vitro ADME
T1 construct: purchased BD Biosciences
T1 sequence (P22310 29-534): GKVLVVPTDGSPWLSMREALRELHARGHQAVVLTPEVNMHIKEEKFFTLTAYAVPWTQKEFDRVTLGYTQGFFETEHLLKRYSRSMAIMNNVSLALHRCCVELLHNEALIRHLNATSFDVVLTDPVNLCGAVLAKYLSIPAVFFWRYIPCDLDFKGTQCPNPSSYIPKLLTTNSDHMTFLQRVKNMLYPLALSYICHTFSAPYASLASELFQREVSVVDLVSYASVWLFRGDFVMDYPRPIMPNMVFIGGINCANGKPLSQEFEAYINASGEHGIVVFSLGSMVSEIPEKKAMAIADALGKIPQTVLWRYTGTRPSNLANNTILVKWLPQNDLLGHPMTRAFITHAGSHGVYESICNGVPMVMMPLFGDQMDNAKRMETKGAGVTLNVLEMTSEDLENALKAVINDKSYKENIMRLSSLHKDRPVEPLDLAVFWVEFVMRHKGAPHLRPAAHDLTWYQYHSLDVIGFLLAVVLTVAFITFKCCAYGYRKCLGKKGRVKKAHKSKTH
From the text: Experimental Summary: UGT Reaction Phenotyping (7 Isoforms).

PTZ-induced seizure = assay: PTZ-induced epilepsy mouse model; assay type: in vivo; conditions: for Latency to Clonic Seizure Event compared to PTZ alone / Latency to First Seizure Event compared to PTZ alone / Latency to Tonic Seizure Event compared to PTZ alone / Percent of animals reaching Tonic-clonic Stage 6 compared to PTZ alone / Racine scores over 5 minute intervals for 30 minutes compared to PTZ alone / Survival Effects: mortality rate compared to the vehicle/PTZ group: PTZ 80 mg/kg, CBD 100 mg/kg 60 minutes prior, Compound 3 100 mg/kg 30 minutes prior to PTZ
From the text: Mouse models using GABAa receptor antagonist Pentylenetetrazol (PTZ) are well defined and used as a standard for the identification of potential anticonvulsants to treat generalized clonic seizures (Loscher et al., 1991 Epilepsy Res 8:171-189). The purpose of this study was to evaluate and compare CBD to test article Compound 3, on their therapeutic effects in a mouse model of PTZ-induced seizure. To match up test article plasma concentration time max (Tmax) with the PTZ induced seizures; test articles were administered at 60 minutes and 30 minutes prior to PTZ administration respectively. Vehicle used for treatment groups was 10% EtOH/10% Tween 80/80% Saline.
Mice were acclimated to the procedure room for at least 30 minutes.
Pentylenetetrazole (PTZ; Sigma Aldrich) was formulated in water to a concentration of 16 mg/mL. Injections of PTZ were made at a volume of 5 mL/kg to produce a final dose of 80 mg/kg. […] A 30- • minute maximum latency to seizure was imposed. • Clinical behavior was scored using the following adapted Racine scale: • Score 0, no seizures observed • Score 1, Behavioral arrest (freezing, fixed gaze, staring), vibrissae twitching, • mouth or facial clonus • Score 2, Pop or jump, straub tail, foot splay, head nodding • Score 3, Forelimb clonus, extended forelimbs, multiple pops or jerks • Score 4, Rearing and bilateral forelimb clonus, Running and running/bouncing • Score 5, All limb clonus, rearing and falling (stay fallen on rear side) • Score 6, Tonic hindlimb extensions, cardiac arrest
Behavior was scored by an observer blind to treatment. The highest score reached during every 5 minute period during the 30 minutes after PTZ was administered was recorded. Additionally, the percent tonic-clonic (number of animals progressing to the highest seizure score), and percent mortality was also calculated.

[1] = PK and Tmax of CBD and Compound 3 after IP administration; assay type: in vivo; conditions: male C57BL/6 mice; for Cmax / AUC(0-t): mouse, in vivo; for AUC(0-t): read-out: AUC(0-t) (obs area)
From the text: The purpose of this study was to determine the pharmacokinetics and time of maximum plasma (Tmax) of the test articles (TA) CBD and Compound 3 following intraperitoneal (IP) administration to male C57BL/6 mice. This method of TA delivery, dose and mouse strain was to be used in a subsequent Pentylenetetrazol (PTZ) induced seizure model for the evaluation of the TA's for anti-epileptic activity.

[2] = tested on: lipopolysaccharide (LPS)-induced inflammation; assay: Rat LPS model, serum pro-inflammatory cytokines; assay type: in vivo, Sprague Dawley rats; conditions: oral, 4 days; 2 h after LPS
Protocol: This assay was employed to determine the efficacies of CBG, compound 1, and compound 2 against lipopolysaccharide (LPS)-induced inflammation in Sprague Dawley rats.
Eight- to 10-week-old male rats were treated with CBG, Compound 1, and Compound 2, or a positive control (cyclosporin A) for four days prior to treatment with LPS. Twenty-eight (28) Sprague Dawley male rats, 8-10 weeks old, were used for this study. Animals were randomized by weight into one of 7 treatment groups as shown in Table 10 below and treated for 4 days with either vehicle control (Groups 1 and 2), Cyclosporin A (Neoral) (Group 3), CBG at 30 mg/kg (Group 4), Compound 1 at 31.5 mg/kg (Group 5), Compound 2 at 32.7 mg/kg (Group 6) or CBG at 30 mg/kg (intraperitoneal/IP; Group 7). Groups 1-6 were dosed for 4 days by oral gavage; group 7 was dosed for 4 days by IP injection. After the 4th injection, Groups 2-7 received a single IP injection of LPS at 5 mg/kg to induce inflammation. Body weight was recorded every other day starting on the day of or day prior to the first day of treatment. A terminal body weight was recorded. General health and clinical signs were recorded once daily. Blood was collected to isolate immune cells at 2 hours after the LPS injection. […]
Serum samples (N=82) were processed and shipped to Inotiv Boulder for analysis. […] The samples were analyzed for cytokine levels using the RECYTMAG-65K Luminex™ kit. […]

SMILES	Latency to Clonic Seizure Event compared to PTZ alone (PTZ-induced seizure)	Latency to First Seizure Event compared to PTZ alone (PTZ-induced seizure)	Latency to Tonic Seizure Event compared to PTZ alone (PTZ-induced seizure)	Percent of animals reaching Tonic-clonic Stage 6 compared to PTZ alone (PTZ-induced seizure)	Racine scores over 5 minute intervals for 30 minutes compared to PTZ alone (PTZ-induced seizure)	Survival Effects: mortality rate compared to the vehicle/PTZ group (PTZ-induced seizure)	Cmax ([1]; plasma, 100 mg/kg IP) [ng/mL]	AUC(0-t) ([1]; plasma, 100 mg/kg IP) [ng·h/mL]	also measured
CCCCCc1cc(O)c(C/C=C(\C)CCC=C(C)C)c(OC)c1 [Cmpd1]									GI50 (HCT116; average of N1-N3, read-out: GI50 AVG): 10.3 µM; GI50 (HCT116; replicate N1, read-out: GI50 N1): 10.5 µM; GI50 (HCT116; replicate N2, read-out: GI50 N2): 9.96 µM; GI50 (HCT116; replicate N3, read-out: GI50 N3): 10.5 µM
C[N+]1([C@@H]2O[C@H](C(=O)[O-])[C@@H](O)[C@H](O)[C@H]2O)CCN(CCCN2c3ccccc3Sc3ccc(C(F)(F)F)cc32)CC1 [Trifluoperazine Glucuronide]									average peak area ratio at 60 min/average peak area ratio at 0 min (printed in the half-life column) (UGT1A4; Test Conc. 1 μM): *6.38
C=C(C)[C@@H]1CCC(C)=C[C@H]1c1c(O)cc(CCCCC)cc1O [CBD, cannabidiol, reference compound]	did not yield a significantly different latency	did not result in a difference in latency to first seizure	did not yield a significantly different latency	did not yield a significantly difference in proportion; also recorded: did not yield a significant difference in proportion	did not yield a significant change in clinical score	did not yield a significantly reduced mortality rate	2730	6830	Tmax (in words) ([1]; IP): two separate Tmax peaks
C=C(C)[C@@H]1CCC(C)=C[C@H]1c1c(O)cc(CCCCC)cc1OC [Compound 3, (1′R,2′R)-6-methoxy-5′-methyl-4-pentyl-2′-(prop-1-en-2-yl)-1′,2′,3′,4′-tetrahydro-[1,1′-biphenyl]-2-ol]	did not yield a significantly different latency; also recorded: strong trend toward longer latency	trended towards a longer latency than PTZ alone, although the difference was not significant	significantly longer latency	significantly lower proportion	significant improvement in Racine scores	significantly reduced mortality rate	21800	30200	overall anti-epileptic activity (in words) (PTZ-induced seizure; PTZ seizure model): clear anti-epileptic therapeutic activity; reduction of IL-1B and IFNy relative to CBG (in words) [2]: equal to or better than CBG; Cmax relative to CBD ([1]; IP): 8 fold; plasma PK Area Under the Curve (AUC) relative to CBD ([1]; IP): over 4 fold; TMax ([1]; plasma, 100 mg/kg IP): 0.5 h
CN1CCN(CCCN2c3ccccc3Sc3ccc(C(F)(F)F)cc32)CC1 [Trifluoperazine, trifluoperazine]									microsomal CLint at 1 µM (UGT1A4; human, recombinant UGT1A4 Supersomes, pH 7.4, Test Conc. 1 μM, read-out: Recombinant UGT CLINT Clearance): 0.7 µL/min/mg; half-life at 1 µM (UGT1A4; human, recombinant UGT1A4 Supersomes, pH 7.4, Test Conc. 1 μM, read-out: Recombinant UGT Half Life T1/2): 16.4 h
